Data taken from US12329753B2, “Phosphodiesterase inhibitor treatment” (Cyrano Therapeutics, Inc., priority 2008, dated 2025).
Marks after values point to notes of the source that are not given here.

What was measured:
[1] = test system: asthmatic patients; assay: sGaw after inhaled dry powder in asthmatic patients, single blind study (Examples 5, 6); assay type: in vivo, human; conditions: dry powder 2 mg inhaled
Method: To test this theory, asthmatic patients are enrolled in a dose escalating single blind study. On arrival to the clinic, subjects are allowed to rest for 20 minutes before baseline measurements of FEV1 (six recordings) and sGaw (five recordings) are made. Subjects receive a dry powder dispenser loaded with a dose of 2 mg theophylline or a dry powder carrier. […] After each inhalation, measurements of sGaw are made at 1, 3, 5, 10, 15, 20, 25, and 30 minutes.
On completion of the last recording, subjects inhale a 200 μg dose of salbutamol from a metered inhaler and a further measurement of sGaw is made after 15 minutes. Subjects are also monitored for coughing and are questioned about the taste of the drug.
Asthmatic patients are enrolled in a dose escalating single blind study. On arrival to the clinic, subjects are allowed to rest for 20 minutes before baseline measurements of FEV1 (six recordings) and sGaw (five recordings) are made. Subjects receive a dry powder dispenser loaded with a dose of 1 mg IBMX formulated as a dry powder or a dry powder carrier. […] After each inhalation, measurements of sGaw are made at 1, 3, 5, 10, 15, 20, 25, and 30 minutes.
On completion of the last recording, subjects inhale a 200 μg dose of salbutamol from a metered inhaler and a further measurement of sGaw mad after 15 minutes. Subjects are also be monitored for coughing and are questioned about the taste of the drug.

[2] = test system: patients with hyposmia; assay: Smell function tests (DT, RT, ME), forced-choice three-stimuli stepwise-staircase technique, open trial of oral theophylline; assay type: in vivo, human; conditions: for detection threshold (DT), amyl acetate / detection threshold (DT), nitrobenzene / detection threshold (DT), pyridine / detection threshold (DT), thiophene / magnitude estimation (ME), amyl acetate / magnitude estimation (ME), nitrobenzene / magnitude estimation (ME), pyridine / magnitude estimation (ME), thiophene / recognition threshold (RT), amyl acetate / recognition threshold (RT), nitrobenzene / recognition threshold (RT), pyridine / recognition threshold (RT), thiophene: mean ± SEM
Source text: Patients initially reported their sensory dysfunction as either loss of taste (i.e., flavor) and/or smell function. This subjective response was documented by objective psychophysical measurements of olfactory function administered to each patient by use of a forced-choice, three-stimuli, stepwise-staircase technique in a fixed, controlled design (1, 53). Efficacy of this technique and results of testing were previously documented in a double-blind clinical trial (53). Four odors were used; they were pyridine (dead-fish odor), nitrobenzene (bitter-almond odor), thiophene (petroleum-like odor) and amyl acetate (banana-oil odor). Detection thresholds (DT), recognition thresholds (RT) and magnitude estimation (ME) values for each odor were determined as previously described (1, 53). Thresholds were converted into bottle units (BU) as previously described (53) and results reported as M±SEM of correct responses for each odor in each treatment group; ME was reported in % and results calculated to obtain M±SEM for each treatment group for all correct responses using data for the four highest odor concentrations presented (from 10^−2M—an absolute odor concentration).
After determination of hyposmia, patients were treated in an open label, fixed design, controlled open trial. Patients were given an oral extended release theophylline in divided daily doses taken in the middle of breakfast and lunch. All patients were initially given 200 mg of theophylline; changes in this dose were made based upon subjective responses to therapy. If at a subsequent return visit, patients reported ≥5% subjective improvement in overall smell function, they continued on this same dose of theophylline and were reevaluated after four to six months of continued treatment. Results from any subsequent return from these improved patients were not included in any subsequent data report. All subsequent comparisons between treated and untreated patients were made only between those patients continuing in the study compared to their own measurements obtained in the untreated state. If patients reported <5% subjective improvement, their theophylline dose was increased by 200 mg daily and they were scheduled for retesting at the study site after two to four months at this new dosage. For patients that reported <5% improvement, this sequence continued until patients reached 800 mg of theophylline, at which time the study was considered completed.
Patients returned for reevaluation after two to four months of treatment. Measurements of blood serum theophylline were measured by a fluorescence polarization assay (Abbott, Chicago, IL). At this time, subjective changes in smell function were measured independently (compared to patient's memory of previous normal smell function monitored by use of the patients' daily measurements) using the scale from −100-0-+100 previously described (vs). After independently recording their subjective responses, smell function was measured for all four odors with DT, RT, ME and H determined without recourse to prior measurements.
Since data for all measurements from each patient group (local or distant) on each dose level were combined mean and SEM for each measurement (DT, RT, ME, H) of smell function for each treatment group were calculated on this basis. Differences in measurements between before treatment and each treatment level were calculated and significance of differences estimated using Student t tests (values p<0.05 considered significant). Some patient responses were also analyzed by use of non-parametric statistics (sign test) and the Spearman rank correlation technique; […] was considered significant related to smell loss type and treatment response. Since each patient served as his/her own control with respect to before and after treatment, paired t tests were also calculated; […] were considered significant. These values were not included in the results presented.

[3] = oral 200 mg daily, 2-6 months, all patients (199)
[4] = oral 200 mg, Type I hyposmia (57)
[5] = oral 400 mg daily, 2-6 months, all patients (120)
[6] = oral 400 mg, Type I hyposmia (33)
[7] = oral 600 mg daily, 2-12 months, all patients (160)
[8] = oral 600 mg, Type I hyposmia (51)
[9] = oral 800 mg daily, 2-12 months, all patients (28)
[10] = oral 800 mg, Type I hyposmia (12)

SMILES: Cn1c(=O)c2[nH]cnc2n(C)c1=O [theophylline]
- increase in sGaw versus 200 μg salbutamol [1]: comparable to that produced by salbutamol
- sGaw above baseline measurement ([1]; after 30 minutes): 20%
- detection threshold (DT), amyl acetate [2, 3]: 7.9 ± 0.2^c BU
- detection threshold (DT), nitrobenzene [2, 3]: 7.8 ± 0.2^d BU
- detection threshold (DT), pyridine [2, 3]: 7.6 ± 0.2^a BU
- detection threshold (DT), thiophene [2, 3]: 7.5 ± 0.2^c BU
- magnitude estimation (ME), amyl acetate [2, 3]: 15 ± 2^d %
- magnitude estimation (ME), nitrobenzene [2, 3]: 17 ± 2^ %
- magnitude estimation (ME), pyridine [2, 3]: 28 ± 2^a %
- magnitude estimation (ME), thiophene [2, 3]: 21 ± 2^ %
- recognition threshold (RT), amyl acetate [2, 3]: 9.9 ± 0.2^c BU
- recognition threshold (RT), nitrobenzene [2, 3]: 9.5 ± 0.2^a BU
- recognition threshold (RT), pyridine [2, 3]: 9.0 ± 0.2^a BU
- recognition threshold (RT), thiophene [2, 3]: 9.1 ± 0.2^c BU
- detection threshold (DT), amyl acetate [2, 4]: 10.5 ± 0.3^d BU
- detection threshold (DT), nitrobenzene [2, 4]: 10.3 ± 0.3^a BU
- detection threshold (DT), pyridine [2, 4]: 9.5 ± 0.2 BU
- detection threshold (DT), thiophene [2, 4]: 10.1 ± 0.3^d BU
- recognition threshold (RT), amyl acetate [2, 4]: 11.3 ± 0.2^ BU
- recognition threshold (RT), nitrobenzene [2, 4]: 11.2 ± 0.2^d BU
- recognition threshold (RT), thiophene [2, 4]: 11.4 ± 0.2^ BU
- total mean increase in ME, all odors ([2]; oral 400 mg): 10.4%
- detection threshold (DT), amyl acetate [2, 5]: 7.1 ± 0.3^b BET
- detection threshold (DT), nitrobenzene [2, 5]: 7.2 ± 0.3^c BET
- detection threshold (DT), pyridine [2, 5]: 7.0 ± 0.3^c BET
- detection threshold (DT), thiophene [2, 5]: 6.8 ± 0.4^c BET
- magnitude estimation (ME), amyl acetate [2, 5]: 18 ± 2^c %
- magnitude estimation (ME), nitrobenzene [2, 5]: 23 ± 2^a %
- magnitude estimation (ME), thiophene [2, 5]: 26 ± 2^c %
- recognition threshold (RT), nitrobenzene [2, 5]: 8.9 ± 0.3^b BU
- recognition threshold (RT), pyridine [2, 5]: 8.5 ± 0.3^a BU
- recognition threshold (RT), thiophene [2, 5]: 8.4 ± 0.3^a BU
- detection threshold (DT), amyl acetate [2, 6]: 10.1 ± 0.5^a BU
- detection threshold (DT), pyridine [2, 6]: 8.8 ± 0.5 BU
- recognition threshold (RT), amyl acetate [2, 6]: 11.2 ± 0.3^ BU
- recognition threshold (RT), nitrobenzene [2, 6]: 10.9 ± 0.4^e BU
- recognition threshold (RT), thiophene [2, 6]: 10.8 ± 0.4^d BU
- detection threshold (DT), amyl acetate [2, 7]: 7.8 ± 0.3^a BET
- detection threshold (DT), nitrobenzene [2, 7]: 7.8 ± 0.3^a BET
- detection threshold (DT), pyridine [2, 7]: 7.4 ± 0.2^c BET
- detection threshold (DT), thiophene [2, 7]: 7.1 ± 0.3^a BET
- magnitude estimation (ME), amyl acetate [2, 7]: 15 ± 2^c %
- magnitude estimation (ME), nitrobenzene [2, 7]: 18 ± 2^d %
- magnitude estimation (ME), pyridine [2, 7]: 26 ± 2^d %
- magnitude estimation (ME), thiophene [2, 7]: 21 ± 2^d %
- recognition threshold (RT), amyl acetate [2, 7]: 9.6 ± 0.2^a BU
- recognition threshold (RT), nitrobenzene [2, 7]: 9.1 ± 0.2^c BU
- recognition threshold (RT), pyridine [2, 7]: 9.4 ± 0.2^c BU
- recognition threshold (RT), thiophene [2, 7]: 9.0 ± 0.3^c BU
- detection threshold (DT), amyl acetate [2, 8]: 10.1 ± 0.3^a BU
- recognition threshold (RT), amyl acetate [2, 8]: 11.1 ± 0.2^c BU
- recognition threshold (RT), nitrobenzene [2, 8]: 10.8 ± 0.3^e BU
- recognition threshold (RT), pyridine [2, 8]: 10.9 ± 0.3 BU
- recognition threshold (RT), thiophene [2, 8]: 10.9 ± 0.3^b BU
- detection threshold (DT), amyl acetate [2, 9]: 7.2 ± 0.8 BU
- detection threshold (DT), nitrobenzene [2, 9]: 7.0 ± 0.8^d BU
- detection threshold (DT), thiophene [2, 9]: 7.2 ± 0.7 BU
- magnitude estimation (ME), amyl acetate [2, 9]: 24 ± 2^a %
- magnitude estimation (ME), nitrobenzene [2, 9]: 25 ± 6 ^ %
- magnitude estimation (ME), pyridine [2, 9]: 29 ± 5%
- magnitude estimation (ME), thiophene [2, 9]: 20 ± 4%
- recognition threshold (RT), amyl acetate [2, 9]: 9.0 ± 0.5^b BU
- recognition threshold (RT), nitrobenzene [2, 9]: 7.8 ± 0.8^d BU
- recognition threshold (RT), pyridine [2, 9]: 8.5 ± 0.6^c BU
- recognition threshold (RT), thiophene [2, 9]: 9.6 ± 0.6 BU
- detection threshold (DT), amyl acetate [2, 10]: 10.6 ± 0.5^ BU
- detection threshold (DT), nitrobenzene [2, 10]: 10.1 ± 0.8^ BU
- detection threshold (DT), pyridine [2, 10]: 9.6 ± 0.8 BU
- recognition threshold (RT), amyl acetate [2, 10]: 11.6 ± 0.4^ BU
- recognition threshold (RT), nitrobenzene [2, 10]: 11.3 ± 0.7^ BU
- recognition threshold (RT), pyridine [2, 10]: 10.3 ± 1.0 BU
- recognition threshold (RT), thiophene [2, 10]: 11.6 ± 0.2^ BU
